Source: patent publication US20230159527A1, “COMPOUNDS AS BCL-2 INHIBITORS” (Fochon Pharmaceuticals, Ltd., priority 2020, published 2023)

System: Toledo cells
Test: Cell proliferation assay, Toledo cells (MTS, 72 h)
Format: cell-based
Settings: Homo sapiens, Toledo cells, MTS, read-out: Toledo IC50
Description: MTS testing kit was purchased from Promega (Madison, Wis., USA). The RPMI-1640, Fetal bovine serum and Penicillin-Streptomycin were purchased from BI (Biological Industries, Beit Haemek, Israel). Dimethyl sulfoxide (DMSO) was purchased from Sigma (St. Louis, Mo., USA). Toledo (ATCC catalog #: CRL-2631) cells were cultured in RPMI-1640 supplemented with Penicillin-Streptomycin and 10% FBS.
To investigate whether a compound is able to inhibit the activity of BCL-2 in cells, a mechanism-based assay using Toledo lines was developed. In this assay, the inhibition of BCL-2 was reflected by the inhibition of cell proliferation of Toledo cells. Cells were plated into 96-well plates at the optimized cell density of 30000 cells/well. Plates were incubated at 37° C., with 5% CO2 for 4h. Compounds were serially diluted and added to the plates with the final concentrations of 10000, 3333.3, 1111.1, 370.4, 123.5, 41.2, 13.7, 4.6 and 1.5 nM. Plates were incubated at 37° C., with 5% CO2 for 72 h. 20 μl MTS was added into each well and the plates were incubated at 37° C., with 5% CO2 for exactly 2 h. The absorbance was measured by a microplate reader at 490 nm. IC50 was calculated using GraphPad Prism 5.0 software.

Row | Molecule | IC50
1 | CO[C@H]1CC[C@H]([C@@H]2COc3cc(S(=O)(=O)NC(=O)c4ccc(N5CCC6(CC5)CC(N5CCC[C@H]5c5ccccc5C(C)C)C6)cc4Oc4cnc5[nH]cc(F)c5c4)cc([N+](=O)[O-])c3N2)CC1 (single isomer, unassigned) [Example D-45, 2-((3-fluoro-1H-pyrrolo[2,3-b]pyridin-5-yl)oxy)-4-(2-((R or S)-2-(2-isopropylphenyl)pyrrolidin-1-yl)-7-azaspiro[3.5]nonan-7-yl)-N-(((R)-3-((1r,4S)-4-methoxycyclohexyl)-5-nitro-3,4-dihydro-2H-benzo[b][1,4]oxazin-7-yl)sulfonyl)benzamide] | 1 nM
2 | CC(C)c1ccccc1[C@@H]1CCC[C@@H]1N1CC2(CCN(c3ccc(C(=O)NS(=O)(=O)c4ccc(NC[C@H]5CC[C@](C)(O)CC5)c([N+](=O)[O-])c4)c(Oc4cc5cc[nH]c5nc4Cl)c3)CC2)C1 (single isomer, unassigned) [Example D-232, 2-((6-chloro-1H-pyrrolo[2,3-b]pyridin-5-yl)oxy)-N-((4-((1r,4r)-4-hydroxy-4-methylcyclohexyl)methyl)amino)-3-nitrophenyl) sulfonyl)-4-(2-((1S,2S or 1R,2R)-2-(2-isopropylphenyl) cyclopentyl)-2,7-diazaspiro[3.5] nonan-7-yl)benzamide] | 1 nM
3 | COCCNc1nc2[nH]ccc2cc1Oc1cc(N2CCC3(CC2)CC(N2CCC[C@H]2c2ccccc2C(C)C)C3)ccc1C(=O)NS(=O)(=O)c1cc2c(c([N+](=O)[O-])c1)N[C@@H]([C@H]1CC[C@](C)(O)CC1)CO2 (single isomer, unassigned) [Example D-56, N-(((S)-3-((1r,4S)-4-hydroxy-4-methylcyclohexyl)-5-nitro-3,4-dihydro-2H-benzo[b][1,4]oxazin-7-yl)sulfonyl)-4-(2-((R or S)-2-(2-isopropylphenyl)pyrrolidin-1-yl)-7-azaspiro[3.5]nonan-7-yl)-2-((6-((2-methoxyethyl)amino)-1H-pyrrolo[2,3-b]pyridin-5-yl)oxy)benzamide] | 1 nM
4 | CC(C)c1ccccc1[C@@H]1CCCN1C1CC2(CCN(c3ccc(C(=O)NS(=O)(=O)c4cc5c(c([N+](=O)[O-])c4)N[C@@H]([C@H]4CC[C@](C)(O)CC4)CO5)c(Oc4cc5cc[nH]c5nc4OC[C@H]4CCN4C(=O)OC(C)(C)C)c3)CC2)C1 (single isomer, unassigned) [Example D-213, tert-butyl (R)-2-(((5-(2-(((S)-3-((1r,4S)-4-hydroxy-4-methylcyclohexyl)-5-nitro-3,4-dihydro-2H-benzo[b][1,4]oxazin-7-yl)sulfonyl)carbamoyl)-5-(2-((R or S)-2-(2-isopropylphenyl)pyrrolidin-1-yl)-7-azaspiro[3.5]nonan-7-yl)phenoxy)-1H-pyrrolo[2,3-b]pyridin-6-yl)oxy)methyl)azetidine-1-carboxylate] | 1 nM
5 | CC(C)c1ccccc1[C@@H]1CCC[C@@H]1N1CC2(CCN(c3ccc(C(=O)NS(=O)(=O)c4ccc(NC[C@H]5CC[C@](C)(O)CC5)c([N+](=O)[O-])c4)c(Oc4cc5cc[nH]c5nc4OC4COC4)c3)CC2)C1 (single isomer, unassigned) [Example D-115, N-((4-((((1r,4r)-4-hydroxy-4-methylcyclohexyl)methyl)amino)-3-nitrophenyl)sulfonyl)-4-(2-((1S,2S or 1R,2R)-2-(2-isopropylphenyl)cyclopentyl)-2,7-diazaspiro[3.5]nonan-7-yl)-2-((6-(oxetan-3-yloxy)-1H-pyrrolo[2,3-b]pyridin-5-yl)oxy) benzamide] | 1 nM
6 | CC(C)c1ccccc1C1=CCCC1N1CC2(CCN(c3ccc(C(=O)NS(=O)(=O)c4cc5c(c([N+](=O)[O-])c4)N[C@@H]([C@H]4CC[C@](C)(O)CC4)CO5)c(Oc4cnc5[nH]cc(F)c5c4)c3)CC2)C1 (stereo partly drawn) [Example D-77, 2-((3-fluoro-1H-pyrrolo[2,3-b]pyridin-5-yl)oxy)-N-(((S)-3-((1r,4S)-4-hydroxy-4-methylcyclohexyl)-5-nitro-3,4-dihydro-2H-benzo[b] [1,4]oxazin-7-yl)sulfonyl)-4-(2-(2-(2-isopropylphenyl)cyclopent-2-en-1-yl)-2,7-diazaspiro[3.5]nonan-7-yl)benzamide] | 1 nM
7 | COCCOc1nc2[nH]ccc2cc1Oc1cc(N2CCC3(CC2)CC(N2CCC[C@H]2c2ccccc2C(C)C)C3)ccc1C(=O)NS(=O)(=O)c1cc2c(c([N+](=O)[O-])c1)N[C@@H](C[C@H]1CC[C@](C)(O)CC1)CO2 (single isomer, unassigned) [Example D-21, N-(((S)-3-(((1r,4S)-4-hydroxy-4-methylcyclohexyl)methyl)-5-nitro-3,4-dihydro-2H-benzo[b][1,4]oxazin-7-yl)sulfonyl)-4-(2-((R or S)-2-(2-isopropylphenyl)pyrrolidin-1-yl)-7-azaspiro[3.5]nonan-7-yl)-2-((6-(2-methoxyethoxy)-1H-pyrrolo[2,3-b]pyridin-5-yl)oxy) benzamide] | 1 nM
8 | CC(=O)N1CCN(C2CC3(CCN(c4ccc(C(=O)NS(=O)(=O)c5cc6c(c([N+](=O)[O-])c5)N[C@@H]([C@H]5CC[C@](C)(O)CC5)CO6)c(Oc5cnc6[nH]cc(F)c6c5)c4)CC3)C2)[C@H](c2ccccc2C(C)C)C1 (single isomer, unassigned) [Example D-140, 4-(2-((R or S)-4-acetyl-2-(2-isopropylphenyl)piperazin-1-yl)-7-azaspiro[3.5]nonan-7-yl)-2-((3-fluoro-1H-pyrrolo [2,3-b]pyridin-5-yl)oxy)-N-(((S)-3-((1r,4S)-4-hydroxy-4-methylcyclohexyl)-5-nitro-3,4-dihydro-2H-benzo[b][1,4]oxazin-7-yl)sulfonyl)benzamide] | 1 nM
9 | CC(C)c1ccccc1[C@@H]1CCCN1C1CC2(CCN(c3ccc(C(=O)NS(=O)(=O)c4cc5c(c([N+](=O)[O-])c4)N[C@@H]([C@H]4CC[C@](C)(O)CC4)CO5)c(Oc4cc5cc[nH]c5nc4OC[C@@H]4COCCN4C(=O)OC(C)(C)C)c3)CC2)C1 (single isomer, unassigned) [Example D-215, tert-butyl (S)-3-(((5-(2-((((S)-3-((1r,4S)-4-hydroxy-4-methylcyclohexyl)-5-nitro-3,4-dihydro-2H-benzo[b][1,4]oxazin-7-yl)sulfonyl)carbamoyl)-5-(2-((R or S)-2-(2-isopropylphenyl)pyrrolidin-1-yl)-7-azaspiro[3.5]nonan-7-yl)phenoxy)-1H-pyrrolo[2,3-b]pyridin-6-yl)oxy)methyl) morpholine-4-carboxylate] | 1 nM
10 | CC(C)c1ccccc1[C@@H]1CS(=O)(=O)CCN1C1CC2(CCN(c3ccc(C(=O)NS(=O)(=O)c4cc5c(c([N+](=O)[O-])c4)N[C@@H]([C@H]4CC[C@](C)(O)CC4)CO5)c(Oc4cnc5[nH]cc(F)c5c4)c3)CC2)C1 (single isomer, unassigned) [Example D-79, 2-((3-fluoro-1H-pyrrolo[2,3-b]pyridin-5-yl)oxy)-N-(((S)-3-((1r,4S)-4-hydroxy-4-methylcyclohexyl)-5-nitro-3,4-dihydro-2H-benzo[b] [1,4]oxazin-7-yl)sulfonyl)-4-(2-((R or S)-3-(2-isopropylphenyl)-1,1-dioxidothiomorpholino)-7-azaspiro [3.5]nonan-7-yl)benzamide] | 1 nM
11 | CC(C)c1ccccc1[C@@H]1CCCN1C1CC2(CCN(c3ccc(C(=O)NS(=O)(=O)c4cc5c(c([N+](=O)[O-])c4)N[C@@H](C[C@H]4CC[C@](C)(O)CC4)CO5)c(Oc4cnc5[nH]cc(F)c5c4)c3)CC2)C1 (single isomer, unassigned) [Example D-19, 2-((3-fluoro-1H-pyrrolo[2,3-b]pyridin-5-yl)oxy)-N-(((S)-3-(((1r,4S)-4-hydroxy-4-methylcyclohexyl)methyl)-5-nitro-3,4-dihydro-2H-benzo[b][1,4]oxazin-7-yl)sulfonyl)-4-(2-((R or S)-2-(2-isopropylphenyl)pyrrolidin-1-yl)-7-azaspiro[3.5]nonan-7-yl)benzamide] | 9 nM

Same assay, conditions: Homo sapiens, Toledo, read-out: Toledo IC50 (nM)

Row | Molecule | IC50
12 | CC(C)c1ccccc1[C@@H]1COCCN1C1CC2(CCN(c3ccc(C(=O)NS(=O)(=O)c4cc5c(c([N+](=O)[O-])c4)N[C@@H]([C@H]4CC[C@](C)(O)CC4)CO5)c(Oc4cnc5[nH]cc(Br)c5c4)c3)CC2)C1 (single isomer, unassigned) [Example D-3, 2-((3-bromo-1H-pyrrolo[2,3-b]pyridin-5-yl)oxy)-N-((S)-3-((1r,4S)-4-hydroxy-4-methylcyclohexyl)-5-nitro-3,4-dihydro-2H-benzo [b][1,4]oxazin-7-yl)sulfonyl)-4-(2-((R or S)-3-(2-isopropylphenyl)morpholino)-7-azaspiro[3.5]nonan-7-yl) benzamide] | 1 nM

Same assay, conditions: Toledo cells, MTS, read-out: Toledo IC50

Row | Molecule | IC50
13 | N-(((S)-3-((1r,4S)-4-hydroxy-4- methylcyclohexyl)-5-nitro-3,4- dihydro-2H-benzo[b][1,4]oxazin-7- yl)sulfonyl)-4-(2-((R or S)- 2-(2-isopropylphenyl)pyrrolidin- 1-yl)-7-azaspiro[3.5]nonan-7- yl)-2-((6-(((R)-tetrahydrofuran-3- yl)oxy)-1H-pyrrolo[2,3-b]pyridin- 5-yl)oxy)benzamide [Example D-73] | 1 nM
